Values quoted from earlier work, collected in US20240166770A1, “COMPOSITIONS AND METHODS FOR INHIBITION OF CELL-PENETRATING ANTIBODIES” (Yale University, priority 2019, published 2024).
Where two headings read alike, the source gives them in different places.

What was measured:
[1] = target: T1, ENT2 (Homo sapiens, UniProt Q14542); conditions: cited from earlier work
T1 sequence (Q14542 1-456): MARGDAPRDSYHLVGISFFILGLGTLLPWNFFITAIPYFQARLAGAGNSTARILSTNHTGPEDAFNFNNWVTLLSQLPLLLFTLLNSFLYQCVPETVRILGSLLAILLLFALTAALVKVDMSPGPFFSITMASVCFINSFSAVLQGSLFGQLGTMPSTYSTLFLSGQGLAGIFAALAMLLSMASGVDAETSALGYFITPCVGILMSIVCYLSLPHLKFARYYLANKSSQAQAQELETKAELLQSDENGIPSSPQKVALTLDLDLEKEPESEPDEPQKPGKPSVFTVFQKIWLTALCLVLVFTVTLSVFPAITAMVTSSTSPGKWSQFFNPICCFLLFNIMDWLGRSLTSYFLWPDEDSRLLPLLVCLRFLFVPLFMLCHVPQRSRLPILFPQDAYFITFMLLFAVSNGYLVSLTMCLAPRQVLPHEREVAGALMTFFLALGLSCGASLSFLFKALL

[2] = target: T2, hENT4 (Homo sapiens, UniProt Q7RTT9); conditions: cited from earlier work
T2 sequence (Q7RTT9 1-530): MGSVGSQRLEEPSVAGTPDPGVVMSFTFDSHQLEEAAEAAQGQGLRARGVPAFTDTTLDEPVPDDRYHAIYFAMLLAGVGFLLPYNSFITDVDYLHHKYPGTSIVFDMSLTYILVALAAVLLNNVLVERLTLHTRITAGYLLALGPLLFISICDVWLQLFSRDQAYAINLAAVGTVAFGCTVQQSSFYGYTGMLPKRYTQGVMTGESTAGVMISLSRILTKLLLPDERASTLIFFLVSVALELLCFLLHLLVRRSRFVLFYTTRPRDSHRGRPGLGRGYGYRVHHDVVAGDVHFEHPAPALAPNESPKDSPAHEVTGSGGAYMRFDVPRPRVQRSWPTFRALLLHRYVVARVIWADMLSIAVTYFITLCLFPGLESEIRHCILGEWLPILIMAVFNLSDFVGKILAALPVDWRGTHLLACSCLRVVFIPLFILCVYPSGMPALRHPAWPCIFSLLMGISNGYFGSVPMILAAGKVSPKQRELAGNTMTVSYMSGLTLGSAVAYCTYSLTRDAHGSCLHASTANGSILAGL

[3] = target: T3, hENT1 (Homo sapiens, UniProt Q99808); conditions: cited from earlier work
T3 sequence (Q99808 1-456): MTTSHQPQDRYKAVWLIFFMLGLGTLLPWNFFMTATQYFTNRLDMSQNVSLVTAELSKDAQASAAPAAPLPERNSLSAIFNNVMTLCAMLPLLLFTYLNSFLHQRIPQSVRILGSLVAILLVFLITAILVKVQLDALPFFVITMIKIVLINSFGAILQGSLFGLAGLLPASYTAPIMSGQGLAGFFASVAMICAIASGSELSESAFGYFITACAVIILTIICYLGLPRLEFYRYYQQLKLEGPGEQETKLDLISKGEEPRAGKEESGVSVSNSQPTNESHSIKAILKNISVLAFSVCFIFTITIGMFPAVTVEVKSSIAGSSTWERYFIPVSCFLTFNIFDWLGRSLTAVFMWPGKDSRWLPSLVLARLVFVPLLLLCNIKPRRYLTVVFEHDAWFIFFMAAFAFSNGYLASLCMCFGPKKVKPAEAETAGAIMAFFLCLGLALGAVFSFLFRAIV

[4] = target: T1, ENT2; conditions: Visser et al. 2002; cited from earlier work
[5] = target: T2, hENT4; conditions: cited from earlier work; remark: listed apart in the source
[6] = Table 3, free hydrogen on the nitrogen of 4- and 8-position substituents
[7] = Table 1, different ring systems at the 4- and 8-positions
[8] = Table 2, opening chain analogues
[9] = Table 4, modification at hydroxyl groups of dipyridamole

## CCCCCNc1nc(N(CCO)CCO)nc2c(NCCCCC)nc(N(CCO)CCO)nc12 [compound 54]
[1]; [6]
  IC50: 4.79 µM
[2]; [6]
  IC50: 0.603 µM

## OCCNc1nc(N2CCCCC2)c2nc(NCCO)nc(N3CCCCC3)c2n1 [compound 1]
[1]; [7]
  IC50: 7.44 µM
[2]; [7]
  IC50: 2.2 µM

## CC(C)CN(CC(C)C)c1nc(N(CCO)CCO)nc2c(N(CC(C)C)CC(C)C)nc(N(CCO)CCO)nc12 [compound 29]
[3]; [8]
  IC50: 2.63 µM
[1]; [8]
  IC50: 1.96 µM
[2]; [8]
  IC50: 1.71 µM

## CC(C)(C)Nc1nc(N(CCO)CCO)nc2c(NC(C)(C)C)nc(N(CCO)CCO)nc12 [compound 52]
[2]; [6]
  IC50: 0.767 µM

## CCNc1nc(N(CCO)CCO)nc2c(NCC)nc(N(CCO)CCO)nc12 [compound 42]
[3]; [6]
  IC50: 0.768 µM

## OCCN(CCO)c1nc(NC2CCCCC2)c2nc(N(CCO)CCO)nc(NC3CCCCC3)c2n1 [compound 66]
[2]; [6]
  IC50: 124 µM

## C1CCN(c2nc(N3CCOCC3)nc3c(N4CCCCC4)nc(N4CCOCC4)nc23)CC1 [compound 73]
[3]; [9]
  IC50: 1.64 µM

## OCCN(CCO)c1nc(N2C3CCCC2CC3)c2nc(N(CCO)CCO)nc(N3C4CCCC3CC4)c2n1 [compound 17]
[1]; [7]
  IC50: 0.323 µM

## CCCNc1nc(N(CCO)CCO)nc2c(NCCC)nc(N(CCO)CCO)nc12 [compound 44]
[1]; [6]
  IC50: 3.5 µM
[2]; [6]
  IC50: 16.4 µM

## CCCCNc1nc(N(CCO)CCO)nc2c(NCCCC)nc(N(CCO)CCO)nc12 [compound 48]
[1]; [6]
  IC50: 2.85 µM
[2]; [6]
  IC50: 1.88 µM

## OCCN(CCO)c1nc(N2CCCCC2)c2nc(N(CCO)CCO)nc(N3CCCCC3)c2n1 [Dipyridamole, 2,6-bis-(diethanolamino)-4,8-di-piperidino-pyrimidopyrimidine]
[1]; [7]
  IC50: 0.308 µM
[2]; [7]
  IC50: 2.8 µM
[4]
  Ki: 6.2 µM
[5]
  inhibition of hENT4 (in words): only weakly inhibits
[5]; listed as dipyridamole
  inhibition of hENT4 (in words): moderate inhibitors

## CCCOCCN(CCOCCC)c1nc(N2CCCCC2)c2nc(N(CCOCCC)CCOCCC)nc(N3CCCCC3)c2n1 [compound 78]
[2]; [9]
  IC50: 140 µM

## OCCN(CCO)c1nc(N2CC3CC4CC(C3)CC2C4)c2nc(N(CCO)CCO)nc(N3CC4CC5CC(C4)CC3C5)c2n1 [compound 19]
[3]; [7]
  IC50: 0.393 µM
[2]; [7]
  IC50: 0.2 µM

## OCCN(CCO)c1nc(Nc2ccccc2)c2nc(N(CCO)CCO)nc(Nc3ccccc3)c2n1 [compound 68]
[3]; [6]
  IC50: 1.12 µM

## COc1cc(C(=O)OCCCN2CCCN(CCCOC(=O)c3cc(OC)c(OC)c(OC)c3)CC2)cc(OC)c1OC [dilazep]
[4]
  Ki: 134 µM

## OCCN(CCO)c1nc(N2CCCC2)c2nc(N(CCO)CCO)nc(N3CCCC3)c2n1 [compound 2]
[1]; [7]
  IC50: 0.556 µM

## CCCN(CCC)c1nc(N(CCO)CCO)nc2c(N(CCC)CCC)nc(N(CCO)CCO)nc12 [compound 25]
[3]; [8]
  IC50: 0.197 µM
[1]; [8]
  IC50: 3.83 µM
[2]; [8]
  IC50: 0.234 µM

## OCCN(CCO)c1nc(NC2CCC2)c2nc(N(CCO)CCO)nc(NC3CCC3)c2n1 [compound 62]
[1]; [6]
  IC50: 0.727 µM
[2]; [6]
  IC50: 15.7 µM

## OCCN(CCO)c1nc(N2CCOCC2)c2nc(N(CCO)CCO)nc(N3CCOCC3)c2n1 [compound 4]
[1]; [7]
  IC50: 4.12 µM

## CC(C)CCN(CCC(C)C)c1nc(N(CCO)CCO)nc2c(N(CCC(C)C)CCC(C)C)nc(N(CCO)CCO)nc12 [compound 33]
[2]; [8]
  IC50: 44.2 µM

## CC(C)OCCN(CCO)c1nc(N2CCCCC2)c2nc(N(CCO)CCOC(C)C)nc(N3CCCCC3)c2n1 [compound 79]
[3]; [9]
  IC50: 0.0675 µM
[1]; [9]
  IC50: 0.175 µM

## OCCN(CCO)c1nc(N2CCCCCCC2)c2nc(N(CCO)CCO)nc(N3CCCCCCC3)c2n1 [compound 13]
[1]; [7]
  IC50: 0.0908 µM
[2]; [7]
  IC50: 0.404 µM

## OCCNc1nc(NCc2ccccc2)c2nc(NCCO)nc(NCc3ccccc3)c2n1 [compound 71]
[2]; [6]
  IC50: 1.76 µM

## OCCN(CCO)c1nc(NC2CC2)c2nc(N(CCO)CCO)nc(NC3CC3)c2n1 [compound 60]
[1]; [6]
  IC50: 2.71 µM
[2]; [6]
  IC50: 37.6 µM

## CCOCCN(CCOCC)c1nc(N2CCCCC2)c2nc(N(CCOCC)CCOCC)nc(N3CCCCC3)c2n1 [compound 77]
[3]; [9]
  IC50: 0.768 µM
[2]; [9]
  IC50: 29.9 µM

## OCCNc1nc(NC2CCC2)c2nc(NCCO)nc(NC3CCC3)c2n1 [compound 63]
[3]; [6]
  IC50: 1.86 µM
[1]; [6]
  IC50: 7.75 µM

## CNc1nc(N(CCO)CCO)nc2c(NC)nc(N(CCO)CCO)nc12 [compound 40]
[3]; [6]
  IC50: 8.46 µM

## O=COCCN(CCOC=O)c1nc(N2CCCCC2)c2nc(N(CCOC=O)CCOC=O)nc(N3CCCCC3)c2n1 [compound 74]
[3]; [9]
  IC50: 0.0691 µM
[1]; [9]
  IC50: 0.532 µM

## OCCN(CCO)c1nc(NC2CCCC2)c2nc(N(CCO)CCO)nc(NC3CCCC3)c2n1 [compound 64]
[1]; [6]
  IC50: 1.32 µM
[2]; [6]
  IC50: 12.2 µM

## CCC(C)(C)Nc1nc(N(CCO)CCO)nc2c(NC(C)(C)CC)nc(N(CCO)CCO)nc12 [compound 58]
[3]; [6]
  IC50: 0.0789 µM
[2]; [6]
  IC50: 0.818 µM

## COCCN(CCOC)c1nc(N(CCO)CCO)nc2c(N(CCOC)CCOC)nc(N(CCO)CCO)nc12 [compound 35]
[3]; [8]
  IC50: 0.538 µM
[1]; [8]
  IC50: 2.09 µM
[2]; [8]
  IC50: 104 µM

## CC(C)CCNc1nc(N(CCO)CCO)nc2c(NCCC(C)C)nc(N(CCO)CCO)nc12 [compound 56]
[1]; [6]
  IC50: 1.95 µM
[2]; [6]
  IC50: 0.495 µM

## CC(C)CNc1nc(N(CCO)CCO)nc2c(NCC(C)C)nc(N(CCO)CCO)nc12 [compound 50]
[3]; [6]
  IC50: 0.126 µM
[1]; [6]
  IC50: 1.49 µM
[2]; [6]
  IC50: 3.06 µM

## CC(C)Nc1nc(N(CCO)CCO)nc2c(NC(C)C)nc(N(CCO)CCO)nc12 [compound 46]
[1]; [6]
  IC50: 3.02 µM
[2]; [6]
  IC50: 26 µM

## OCCN(CCO)c1nc(N2CCCCCC2)c2nc(N(CCO)CCO)nc(N3CCCCCC3)c2n1 [compound 11]
[1]; [7]
  IC50: 0.117 µM
[2]; [7]
  IC50: 0.379 µM

## COCCN(CCOC)c1nc(N2CCCCC2)c2nc(N(CCOC)CCOC)nc(N3CCCCC3)c2n1 [compound 76]
[1]; [9]
  IC50: 1.47 µM
[2]; [9]
  IC50: 1.82 µM

## OCCNc1nc(N2CCCCCCC2)c2nc(NCCO)nc(N3CCCCCCC3)c2n1 [compound 14]
[1]; [7]
  IC50: 5.2 µM
[2]; [7]
  IC50: 0.181 µM

## CC(=O)OCCN(CCOC(C)=O)c1nc(N2CCCCC2)c2nc(N(CCOC(C)=O)CCOC(C)=O)nc(N3CCCCC3)c2n1 [compound 75]
[1]; [9]
  IC50: 0.708 µM
[2]; [9]
  IC50: 14.1 µM

## CCCCN(CCCC)c1nc(N(CCO)CCO)nc2c(N(CCCC)CCCC)nc(N(CCO)CCO)nc12 [compound 27]
[1]; [8]
  IC50: 3.31 µM
[2]; [8]
  IC50: 2.96 µM

## CCCCCN(CCCCC)c1nc(N(CCO)CCO)nc2c(N(CCCCC)CCCCC)nc(N(CCO)CCO)nc12 [compound 31]
[2]; [8]
  IC50: 45.7 µM

## OCCN(CCO)c1nc(N(Cc2ccccc2)Cc2ccccc2)c2nc(N(CCO)CCO)nc(N(Cc3ccccc3)Cc3ccccc3)c2n1 [compound 37]
[2]; [8]
  IC50: 68.4 µM

## OCCOc1nc(N2CCCCC2)c2nc(OCCO)nc(N3CCCCC3)c2n1 [compound 72]
[1]; [9]
  IC50: 1.78 µM

## OCCN(CCO)c1nc(N2CCCCCCCC2)c2nc(N(CCO)CCO)nc(N3CCCCCCCC3)c2n1 [compound 15]
[1]; [7]
  IC50: 2.35 µM
[2]; [7]
  IC50: 1.32 µM

## CCN(CC)c1nc(N(CCO)CCO)nc2c(N(CC)CC)nc(N(CCO)CCO)nc12 [compound 23]
[1]; [8]
  IC50: 2.93 µM
[2]; [8]
  IC50: 4.12 µM

## CC(C)(C)OC(=O)N1CCN(c2nc(N(CCO)CCO)nc3c(N4CCN(C(=O)OC(C)(C)C)CC4)nc(N(CCO)CCO)nc23)CC1 [compound 7]
[3]; [7]
  IC50: 0.58 µM
[1]; [7]
  IC50: 2.23 µM

## OCCNc1nc(N2CC3CC4CC(C3)CC2C4)c2nc(NCCO)nc(N3CC4CC5CC(C4)CC3C5)c2n1 [compound 20]
[3]; [7]
  IC50: 1.43 µM
[2]; [7]
  IC50: 0.602 µM
